From patent US20240400555A1 (Initial Therapeutics, Inc., priority 2023, published 2024)

System: HCT-116 Firefly-luciferase reporter cells
Test: Cellular c-MYC Reporter Assay
Assay type: cell-based
Settings: Homo sapiens; untitled table following Table 8a; HCT-116 Firefly-luciferase reporter cells, 24 h; read-out: pIC50 (converted)
In short: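 Compound exposure lasted 24 h at 37 °C, 5% CO2, in complete McCoy's 5A medium containing 0.2% DMSO, beginning 4–6 h post-seeding (5e4 cells/mL). Firefly luciferase signal measured by luminescence after 10 min ONE-Glo development at room temperature.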

SMILES | IC50
Cc1cccc2ccnc(N(C(=O)c3ccc(-c4cnn(C)c4-c4ccccc4)cc3F)[C@@H]3CCCNC3)c12 [Example 126, (R)-2-fluoro-4-(1-methyl-5-phenyl-1H-pyrazol-4-yl)-N-(8-methylisoquinolin-1-yl)-N-(piperidin-3-yl) benzamide] | 355 nM
CNC(=O)c1ccc2nnn(-c3ccc(C(=O)N(c4nccc5cccc(C)c45)[C@@H]4CCCNC4)c(F)c3)c2n1 [Example 139, (R)-3-(3-fluoro-4-((8-methylisoquinolin-1-yl)(piperidin-3-yl)carbamoyl)phenyl)-N-methyl-3H-[1,2,3]triazolo[4,5-b]pyridine-5-carboxamide] | 170 nM
N#Cc1cccc2ccnc(N(C(=O)c3ccc(-n4nnc5cccnc54)cc3F)[C@@H]3CCCNC3)c12 [Example 164, (R)-4-(3H-[1,2,3]triazolo[4,5-b]pyridin-3-yl)-N-(8-cyanoisoquinolin-1-yl)-2-fluoro-N-(piperidin-3-yl)benzamide] | 97.7 nM
Cn1cnc(-c2cccnc2N(C(=O)c2ccc(-n3nnc4cccnc43)cc2F)[C@@H]2CCCNC2)c1 [Example 112, (R)-4-(3H-[1,2,3]triazolo[4,5-b]pyridin-3-yl)-2-fluoro-N-(3-(1-methyl-1H-imidazol-4-yl)pyridin-2-yl)-N-(piperidin-3-yl)benzamide] | 380 nM
CCc1nnn(-c2ccc(C(=O)N(c3nccc4cccc(C)c34)[C@@H]3CCCNC3)c(F)c2)n1 [Example 142, (R)-4-(5-ethyl-2H-tetrazol-2-yl)-2-fluoro-N-(8-methylisoquinolin-1-yl)-N-(piperidin-3-yl)benzamide] | 79.4 nM
O=C(c1ccc(-n2nnc3cccnc32)cc1F)N(c1ncccc1-c1cc2cnccc2s1)[C@@H]1CCCNC1 [Example 157, (R)-4-(3H-[1,2,3]triazolo[4,5-b]pyridin-3-yl)-2-fluoro-N-(piperidin-3-yl)-N-(3-(thieno[3,2-c]pyridin-2-yl)pyridin-2-yl)benzamide] | 501 nM
Cc1cccc2ccnc(N(C(=O)c3ccc(N4CCOCC4)cc3)[C@@H]3CCCNC3)c12 [Example 219, (R)—N-(8-methylisoquinolin-1-yl)-4-morpholino-N-(piperidin-3-yl)benzamide] | 6310 nM
O=C(c1ccc(-n2nnc3cccnc32)cc1F)N(c1ncccc1-c1cnoc1)[C@@H]1CCCNC1 [Example 114, (R)-4-(3H-[1,2,3]triazolo[4,5-b]pyridin-3-yl)-2-fluoro-N-(3-(isoxazol-4-yl)pyridin-2-yl)-N-(piperidin-3-yl)benzamide] | 1120 nM
COc1cccc2ccnc(N(C(=O)c3ccc(-n4nnc5cccnc54)cc3F)[C@@H]3CCCNC3)c12 [Example 222, (R)-4-(3H-[1,2,3]triazolo[4,5-b]pyridin-3-yl)-2-fluoro-N-(8-methoxyisoquinolin-1-yl)-N-(piperidin-3-yl)benzamide] | 93.3 nM
O=C(c1ccc(-n2nnc3cccnc32)cc1F)N(c1ncccc1-c1ccsc1)[C@@H]1CCCNC1 [Example 177, (R)-4-(3H-[1,2,3]triazolo[4,5-b]pyridin-3-yl)-2-fluoro-N-(piperidin-3-yl)-N-(3-(thiophen-3-yl)pyridin-2-yl)benzamide] | 355 nM
O=C(c1ncc(-n2nnc3cccnc32)cc1F)N(c1nccc2cccc(Cl)c12)[C@@H]1CCCNC1 [Example 200, (R)-5-(3H-[1,2,3]triazolo[4,5-b]pyridin-3-yl)-N-(8-chloroisoquinolin-1-yl)-3-fluoro-N-(piperidin-3-yl)picolinamide] | 77.6 nM
O=C(c1ccc(-n2nnc3cccnc32)cc1F)N(c1nccc2scc(Br)c12)[C@@H]1CCCNC1 [Example 122, (R)-4-(3H-[1,2,3]triazolo[4,5-b]pyridin-3-yl)-N-(3-bromothieno[3,2-c]pyridin-4-yl)-2-fluoro-N-(piperidin-3-yl)benzamide] | 123 nM
Cc1ccc2nnn(-c3ccc(C(=O)N(c4nccc5ccn(C)c45)[C@@H]4CCCNC4)c(F)c3)c2n1 [Example 209, (R)-2-fluoro-N-(1-methyl-1H-pyrrolo[2,3-c]pyridin-7-yl)-4-(5-methyl-3H-[1,2,3]triazolo[4,5-b]pyridin-3-yl)-N-(piperidin-3-yl)benzamide] | 141 nM
Cc1cccc2ccnc(N(C(=O)c3ccc(-n4nnc5cccnc54)cc3)[C@H]3CCNC3)c12 [Example 231, (S)-4-(3H-[1,2,3]triazolo[4,5-b]pyridin-3-yl)-N-(8-methylisoquinolin-1-yl)-N-(pyrrolidin-3-yl)benzamide] | > 20000 nM
Cc1csc2ccnc(N(C(=O)c3ccc(-n4nnc5cccnc54)cc3F)[C@@H]3CCCNC3)c12 [Example 121, 2-fluoro-N-(3-methylthieno[3,2-c]pyridin-4-yl)-N-[(3R)-3-piperidyl]-4-(triazolo[4,5-b]pyridin-3-yl)benzamide] | 38 nM
O=C(c1ccc(-n2nnc3cccnc32)cc1F)N(c1ncccc1-c1cn[nH]c1)[C@@H]1CCCNC1 [Example 176, (R)—N-(3-(1H-pyrazol-4-yl)pyridin-2-yl)-4-(3H-[1,2,3]triazolo[4,5-b]pyridin-3-yl)-2-fluoro-N-(piperidin-3-yl)benzamide] | 933 nM

The remaining lines, values ahead:

IC50 | SMILES
4170 nM | Cc1cccc2ccnc(N(C(=O)c3cccc(Cn4nccn4)c3F)[C@@H]3CCCNC3)c12 [Example 282, (R)-3-((2H-1,2,3-triazol-2-yl)methyl)-2-fluoro-N-(8-methylisoquinolin-1-yl)-N-(piperidin-3-yl)benzamide]
240 nM | Cc1cccc2ccnc(N(C(=O)c3ccc(-c4cnccn4)cc3)[C@@H]3CCCNC3)c12 [Example 238, (R)—N-(8-methylisoquinolin-1-yl)-N-(piperidin-3-yl)-4-(pyrazin-2-yl)benzamide]
589 nM | Cc1cccc2ccnc(N(C(=O)c3ccc(-c4cccnn4)cc3)[C@@H]3CCCNC3)c12 [Example 237, (R)—N-(8-methylisoquinolin-1-yl)-N-(piperidin-3-yl)-4-(pyridazin-3-yl)benzamide]
5500 nM | Cc1cccc2ccnc(N(C(=O)N3CC=C(c4ccccc4OCc4ccccc4)CC3)[C@@H]3CCCNC3)c12 [Example 299, (R)-4-(2-(benzyloxy)phenyl)-N-(8-methylisoquinolin-1-yl)-N-(piperidin-3-yl)-3,6-dihydropyridine-1(2H)-carboxamide]
> 20000 nM | O=C(O)/C=C/c1ccc2ccnc(N(C(=O)c3ccc(-n4nnc5cccnc54)cc3F)[C@@H]3CCCNC3)c2c1 [Example 295, (R,E)-3-(1-(4-(3H-[1,2,3]triazolo[4,5-b]pyridin-3-yl)-2-fluoro-N-(piperidin-3-yl)benzamido)isoquinolin-7-yl)acrylic acid]
4900 nM | Cc1cccc2ccnc(N(C(=O)c3ccc(Nc4ccn(C)n4)cc3F)[C@@H]3CCCNC3)c12 [Example 277, (R)-2-fluoro-4-((1-methyl-1H-pyrazol-3-yl)amino)-N-(8-methylisoquinolin-1-yl)-N-(piperidin-3-yl)benzamide]
107 nM | Cc1cccc2ccnc(N(C(=O)c3ccc(-n4nnc5cccnc54)cn3)[C@@H]3CCCNC3)c12 [Example 244, (R)-5-(3H-[1,2,3]triazolo[4,5-b]pyridin-3-yl)-N-(8-methylisoquinolin-1-yl)-N-(piperidin-3-yl)picolinamide]
33.1 nM | O=C(c1ccc(-n2nnc3cccnc32)cc1F)N(c1nccc2cccc(Cl)c12)[C@@H]1CCCNC1 [Example 246, (R)-4-(3H-[1,2,3]triazolo[4,5-b]pyridin-3-yl)-N-(8-chloroisoquinolin-1-yl)-2-fluoro-N-(piperidin-3-yl)benzamide]
